The compounds below were run against recombinant human ASK1 protein (Homo sapiens (Human), UniProt Q99683) (assay: ASK1 kinase activity inhibition assay (radiometric 33P incorporation into MBP)). Conditions: Table 3; 20 μM MBP, 10 μM 33P-ATP.
Assay type: biochemical
Protocol: ASK1 Kinase Activity Inhibition Assay
Inhibition of ASK1 kinase activity was determined radiometrically using 33P substrate incorporation (Reaction Biology Corp., Malvern, Pa.). Briefly, recombinant human ASK1 protein, 20 μM substrate (myelin basic protein (MBP)), and compound (diluted from DMSO stock to give 1% final DMSO) were incubated in Base Reaction buffer (20 mM Hepes (pH 7.5), 10 mM MgCl2, 1 mM EGTA, 0.02% Brij35, 0.02 mg/mL BSA, 0.1 mM Na3VO4, 2 mM DTT, 1% DMSO) at room temperature for 20 minutes. The reaction was initiated by addition of 10 μM 33P-ATP (specific activity […]). The reaction was then allowed to proceed for 2 hours at room temperature. Upon reaction termination, the mixture was spotted on P81 exchange paper and kinase activity by incorporation of 33P into MBP substrate was detected by filter-binding method.

Chain of recombinant human ASK1 protein (Q99683 whole entry): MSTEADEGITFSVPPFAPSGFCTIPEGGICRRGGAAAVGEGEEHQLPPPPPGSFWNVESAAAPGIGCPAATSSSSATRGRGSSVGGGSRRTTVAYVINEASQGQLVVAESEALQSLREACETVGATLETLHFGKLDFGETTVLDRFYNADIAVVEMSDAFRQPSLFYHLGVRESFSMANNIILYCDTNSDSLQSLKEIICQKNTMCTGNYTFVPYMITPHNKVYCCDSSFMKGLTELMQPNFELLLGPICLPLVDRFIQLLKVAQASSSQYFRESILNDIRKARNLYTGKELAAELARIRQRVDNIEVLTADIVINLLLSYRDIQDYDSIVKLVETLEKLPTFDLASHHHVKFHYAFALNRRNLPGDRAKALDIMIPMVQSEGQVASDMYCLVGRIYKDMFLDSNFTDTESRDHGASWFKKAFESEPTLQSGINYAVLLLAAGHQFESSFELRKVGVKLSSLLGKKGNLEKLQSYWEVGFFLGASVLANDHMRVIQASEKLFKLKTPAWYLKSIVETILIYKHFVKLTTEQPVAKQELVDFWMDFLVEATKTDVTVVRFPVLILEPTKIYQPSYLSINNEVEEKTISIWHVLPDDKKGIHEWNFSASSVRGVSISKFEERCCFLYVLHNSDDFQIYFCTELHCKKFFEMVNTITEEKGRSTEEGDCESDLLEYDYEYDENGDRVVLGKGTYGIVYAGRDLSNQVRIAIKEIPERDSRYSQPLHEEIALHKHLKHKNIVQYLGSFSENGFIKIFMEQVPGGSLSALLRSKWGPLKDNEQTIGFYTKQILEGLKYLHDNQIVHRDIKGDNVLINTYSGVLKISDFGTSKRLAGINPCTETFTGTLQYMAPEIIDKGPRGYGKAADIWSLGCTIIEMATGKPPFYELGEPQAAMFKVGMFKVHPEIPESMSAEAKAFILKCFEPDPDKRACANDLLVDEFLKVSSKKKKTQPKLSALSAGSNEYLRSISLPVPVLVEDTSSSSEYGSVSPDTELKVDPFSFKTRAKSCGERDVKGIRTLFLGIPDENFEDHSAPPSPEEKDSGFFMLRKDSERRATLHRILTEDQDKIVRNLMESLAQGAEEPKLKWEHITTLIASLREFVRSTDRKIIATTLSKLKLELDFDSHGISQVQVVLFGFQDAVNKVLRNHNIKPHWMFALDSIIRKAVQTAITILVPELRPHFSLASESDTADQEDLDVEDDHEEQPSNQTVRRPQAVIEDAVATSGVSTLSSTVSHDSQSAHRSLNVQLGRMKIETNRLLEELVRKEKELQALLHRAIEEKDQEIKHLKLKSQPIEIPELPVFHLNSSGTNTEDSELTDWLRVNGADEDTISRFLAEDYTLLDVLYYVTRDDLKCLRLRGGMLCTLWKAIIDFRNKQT

SMILES	IC50
Cc1c(C(=O)O)cccc1-c1ccc2c(c1)C(=O)N(c1cccc(-c3nncn3C(C)C)n1)C2 [Compound 94, 3-(2-(6-(4-Isopropyl-4H-1,2,4-triazol-3-yl)pyridin-2-yl)-3-oxoisoindolin-5-yl)-2-methylbenzoic Acid]	6.9 nM
CC(C)n1cnnc1-c1cccc(N2Cc3ccc(-c4cc(C(=O)O)ccc4C#N)cc3C2=O)n1 [Compound 14, 4-Cyano-3-(2-(6-(4-isopropyl-4H-1,2,4-triazol-3-yl)pyridin-2-yl)-3-oxoisoindolin-5-yl) Benzoic Acid]	15.6 nM
CC(C)n1cnnc1-c1cccc(N2Cc3ccc(-c4cccc(C5(C(=O)O)CC5)c4)cc3C2=O)n1 [Compound 105, 1-(3-(2-(6-(4-Isopropyl-4H-1,2,4-triazol-3-yl)pyridin-2-yl)-3-oxoisoindolin-5-yl)phenyl)cyclopropane-1-carboxylic Acid]	7.3 nM
CC(C)n1cnnc1-c1cccc(N2Cc3ccc(-c4ccc(C(=O)O)c(CO)c4)cc3C2=O)n1 [Compound 83, 2-(Hydroxymethyl)-4-(2-(6-(4-isopropyl-4H-1,2,4-triazol-3-yl)pyridin-2-yl)-3-oxoisoindolin-5-yl)benzoic Acid]	6.2 nM
O=C1c2cc(-c3cccc(C4(C(=O)O)CC4)c3)ccc2CN1c1cccc(-c2nncn2C2CC2)n1 [Compound 106, 1-(3-(2-(6-(4-Cyclopropyl-4H-1,2,4-triazol-3-yl)pyridin-2-yl)-3-oxoisoindolin-5-yl)phenyl)cyclopropane-1-carboxylic Acid]	8.4 nM
Cc1cc(C(=O)O)cc(-c2ccc3c(c2)C(=O)N(c2cccc(-c4nncn4C(C)C)n2)C3)n1 [Compound 115, 2-(2-(6-(4-Isopropyl-4H-1,2,4-triazol-3-yl)pyridin-2-yl)-3-oxoisoindolin-5-yl)-6-methylisonicotinic Acid]	6.5 nM
CC(C)n1cnnc1-c1cccc(N2Cc3ccc(N4CCCC(C(=O)O)C4)cc3C2=O)n1 (centres unmarked) [Compound 28, 1-(2-(6-(4-Isopropyl-4H-1,2,4-triazol-3-yl)pyridin-2-yl)-3-oxoisoindolin-5-yl)piperidine-3-carboxylic Acid]	11.2 nM
COc1ccc(C(=O)O)cc1-c1ccc2c(c1)C(=O)N(c1cccc(-c3nncn3C(C)C)n1)C2 [Compound 8, 3-(2-(6-(4-Isopropyl-4H-1,2,4-triazol-3-yl)pyridin-2-yl)-3-oxoisoindolin-5-yl)-4-methoxybenzoic Acid]	10.7 nM
CC(C)(C(=O)O)c1cccc(-c2ccc3c(c2)C(=O)N(c2cccc(-c4nncn4C4CC4)n2)C3)c1 [Compound 103, 2-(3-(2-(6-(4-Cyclopropyl-4H-1,2,4-triazol-3-yl)pyridin-2-yl)-3-oxoisoindolin-5-yl)phenyl)-2-methylpropanoic Acid]	12.5 nM
Cc1cc(-c2ccc3c(c2)C(=O)N(c2cccc(-c4nncn4C(C)C)n2)C3)ccc1C(=O)O [Compound 73, 4-(2-(6-(4-isopropyl-4H-1,2,4-triazol-3-yl)pyridin-2-yl)-3-oxoisoindolin-5-yl)-2-methyl]	14.3 nM
CC(C)n1cnnc1-c1cccc(N2Cc3ccc(-c4ccn5ncc(C(=O)O)c5n4)cc3C2=O)n1 [Compound 124, 5-(2-(6-(4-Isopropyl-4H-1,2,4-triazol-3-yl)pyridin-2-yl)-3-oxoisoindolin-5-yl)pyrazolo[1,5-a]pyrimidine-3-carboxylic Acid]	8.3 nM
CC(C)n1cnnc1-c1cccc(N2Cc3ccc(-c4ccc(-n5ncc(C(=O)O)c5N)cc4)cc3C2=O)n1 [Compound 120, 5-Amino-1-(4-(2-(6-(4-isopropyl-4H-1,2,4-triazol-3-yl)pyridin-2-yl)-3-oxoisoindolin-5-yl)phenyl)-1H-pyrazole-4-carboxylic Acid]	8.2 nM
CC(C)n1cnnc1-c1cccc(N2Cc3ccc(-c4ccc(-c5nnn[nH]5)cc4)cc3C2=O)n1 [Compound 91, 6-(4-(2H-Tetrazol-5-yl)phenyl)-2-(6-(4-isopropyl-4H-1,2,4-triazol-3-yl)pyridin-2-yl)isoindolin-1-one]	7.9 nM
CC(C)n1cnnc1-c1cccc(N2Cc3ccc(-c4cc(F)cc(C(=O)O)c4)cc3C2=O)n1 [Compound 4, 3-Fluoro-5-(2-(6-(4-isopropyl-4H-1,2,4-triazol-3-yl)pyridin-2-yl)-3-oxoisoindolin-5-yl)benzoic Acid]	6.7 nM
O=C(O)C1CCCN(c2ccc3c(c2)C(=O)N(c2cccc(-c4nncn4C4CC4)n2)C3)C1 (centres unmarked) [Compound 131, 1-(2-(6-(4-Cyclopropyl-4H-1,2,4-triazol-3-yl)pyridin-2-yl)-3-oxoisoindolin-5-yl)piperidine-3-carboxylic Acid]	21.7 nM
CC(C)n1cnnc1-c1cccc(N2Cc3ccc(-c4c(F)cccc4C(=O)O)cc3C2=O)n1 [Compound 70, 3-Fluoro-2-(2-(6-(4-isopropyl-4H-1,2,4-triazol-3-yl)pyridin-2-yl)-3-oxoisoindolin-5-yl)benzoic Acid]	160 nM
CC(C)n1cnnc1-c1cccc(N2Cc3ccc(N4CCC(CC(=O)O)CC4)cc3C2=O)n1 [Compound 129, 2-(1-(2-(6-(4-Isopropyl-4H-1,2,4-triazol-3-yl)pyridin-2-yl)-3-oxoisoindolin-5-yl)piperidin-4-yl)acetic Acid]	6.6 nM
CC(C)n1cnnc1-c1cccc(N2Cc3ccc(-c4cc(-c5nn[nH]n5)ccc4F)cc3C2=O)n1 [Compound 111, 6-(2-Fluoro-5-(2H-tetrazol-5-yl)phenyl)-2-(6-(4-isopropyl-4H-1,2,4-triazol-3-yl)pyridin-2-yl)isoindolin-1-one]	6.4 nM
COc1cc(N)c(-c2ccc3c(c2)C(=O)N(c2cccc(-c4nncn4C(C)C)n2)C3)cc1C(=O)O [Compound 66, 4-Amino-5-(2-(6-(4-isopropyl-4H-1,2,4-triazol-3-yl)pyridin-2-yl)-3-oxoisoindolin-5-yl)-2-methoxybenzoic Acid]	8.9 nM

The next compounds have a lower IC50 than those just listed; values first:

IC50	SMILES
5.3 nM	O=C(O)c1cccc(-c2ccc3c(c2)C(=O)N(c2cccc(-c4nncn4C4CC4)n2)C3)c1 [Compound 20, 3-(2-(6-(4-Cyclopropyl-4H-1,2,4-triazol-3-yl)pyridin-2-yl)-3-oxoisoindolin-5-yl)benzoic Acid]
5.3 nM	CC(C)n1cnnc1-c1cccc(N2Cc3ccc(-c4cc(C(=O)O)ccc4CO)cc3C2=O)n1 [Compound 59, 4-(Hydroxymethyl)-3-(2-(6-(4-isopropyl-4H-1,2,4-triazol-3-yl)pyridin-2-yl)-3-oxoisoindolin-5-yl)benzoic Acid]
4.7 nM	CC(C)n1cnnc1-c1cccc(N2Cc3ccc(-c4cc(F)cc(C(=O)O)c4F)cc3C2=O)n1 [Compound 97, 2,5-Difluoro-3-(2-(6-(4-isopropyl-4H-1,2,4-triazol-3-yl)pyridin-2-yl)-3-oxoisoindolin-5-yl) Benzoic Acid]
4.7 nM	CC(C)n1cnnc1-c1cccc(N2Cc3ccc(-c4ccc(C(=O)O)c(Cl)c4)cc3C2=O)n1 [Compound 72, 2-Chloro-4-(2-(6-(4-isopropyl-4H-1,2,4-triazol-3-yl)pyridin-2-yl)-3-oxoisoindolin-5-yl)benzoic Acid]
5.52 nM	O=C1c2cc(-c3ccc(-c4nnn[nH]4)cc3)ccc2CN1c1cccc(-c2nncn2C2CC2)n1 [Compound 92, 6-(4-(2H-Tetrazol-5-yl)phenyl)-2-(6-(4-cyclopropyl-4H-1,2,4-triazol-3-yl)pyridin-2-yl)isoindolin-1-one]
1.9 nM	CC(C)n1cnnc1-c1cccc(N2Cc3ccc(-c4cnc(N)c(C(=O)O)c4)cc3C2=O)n1 [Compound 117, 2-Amino-5-(2-(6-(4-isopropyl-4H-1,2,4-triazol-3-yl)pyridin-2-yl)-3-oxoisoindolin-5-yl) Nicotinic Acid]
5.1 nM	CC(C)n1cnnc1-c1cccc(N2Cc3ccc(-c4cncc(C(=O)O)c4)cc3C2=O)n1 [Compound 63, 5-(2-(6-(4-Isopropyl-4H-1,2,4-triazol-3-yl)pyridin-2-yl)-3-oxoisoindolin-5-yl)nicotinic Acid]
4.3 nM	CC(C)n1cnnc1-c1cccc(N2Cc3ccc(-c4ccc(CC(=O)O)cc4)cc3C2=O)n1 [Compound 84, 2-(4-(2-(6-(4-Isopropy-4H-1,2,4-triazol-3-yl)pyridin-2-yl)-3-oxoisoindolin-5-yl)phenyl)acetic Acid]
3.6 nM	CC(C(=O)O)c1ccc(-c2ccc3c(c2)C(=O)N(c2cccc(-c4nncn4C(C)C)n2)C3)cc1 (centres unmarked) [Compound 85, 2-(4-(2-(6-(4-Isopropyl-4H-1,2,4-triazol-3-yl)pyridin-2-yl)-3-oxoisoindolin-5-yl)phenyl)propanoic Acid]
4.7 nM	CC(C)n1cnnc1-c1cccc(N2Cc3ccc(-c4ccc(C(C)(C)C(=O)O)cc4F)cc3C2=O)n1 [Compound 41, 2-(3-Fluoro-4-(2-(6-(4-isopropyl-4H-1,2,4-triazol-3-yl)pyridin-2-yl)-3-oxoisoindolin-5-yl)phenyl)-2-methylpropanoic Acid]
4.9 nM	CC(C)n1cnnc1-c1cccc(N2Cc3ccc(-c4ccc(OCC(=O)O)cc4)cc3C2=O)n1 [Compound 89, 2-(4-(2-(6-(4-Isopropyl-4H-1,2,4-triazol-3-yl)pyridin-2-yl)-3-oxoisoindolin-5-yl)phenoxy) acetic Acid]
4.3 nM	O=C(O)c1ccc(-c2ccc3c(c2)C(=O)N(c2cccc(-c4nncn4C4CC4)n2)C3)cc1 [Compound 71, 4-(2-(6-(4-Cyclopropyl-4H-1,2,4-triazol-3-yl)pyridin-2-yl)-3-oxoisoindolin-5-yl)benzoic Acid]
4.6 nM	Cc1cc(F)c(C(=O)O)cc1-c1ccc2c(c1)C(=O)N(c1cccc(-c3nncn3C(C)C)n1)C2 [Compound 79, 2-Fluoro-5-(2-(6-(4-isopropyl-4H-1,2,4-triazol-3-yl)pyridin-2-yl)-3-oxoisoindolin-5-yl)-4-methylbenzoic Acid]

Reference: patent publication US10654833B2, “ASK1 isoindolin-1-one inhibitors and methods of use thereof” (Hepatikos Therapeutics, LLC, priority 2018, dated 2020)
